The text below walks through data of patent publication US11365186B2, “Substituted benzimidazoles, their preparation and their use as pharmaceuticals” (Epigenetix, Inc., priority 2015, dated 2022).

The experiment deals with human C-Myc transcription in MV-4-11 cells. The experiment is described as follows: Transcription of human C-Myc in human leukemic MV-4-11 cells (QuantiGene 2.0). The experiment is classed as cell-based. Conditions: inhibition of C-Myc mRNA transcription, 4 hours treatment, read-out: IC50 MV-4-11 Cell. How it is done: b) Transcription of Human C-Myc in Human Leukemic MV-4-11 Cells:
The effect of compounds on transcription of human C-Myc gene is monitored in human B-myelomonocytic leukemia cell line MV-4-11 (from American Type Culture Collection (ATCC), Manassas, Va., USA) using QuantiGene 2.0 assay kit (Affymetrix, Santa Clara, Calif., USA).
Typically, 8,000 MV-4-11 cells are plated in sterile 96-well plates (Costar #3598 from Fisher Scientific Canada, Ottawa, Ontario, Canada) in Iscove's medium supplemented with 10% fetal bovine serum, glutamine (2 mM), and penicillin (100 I.U.) and streptomycin (100 μg/mL) (all from Wisent Inc., St. Bruno, Quebec, Canada). Compounds are dissolved in DMSO at 30 mM. A series of 1:3 dilutions are first made in DMSO, and further […] dilutions are made in serum-containing cell culture media. The final concentration of DMSO is 0.1% in cell culture media. After cells are treated with various concentrations of test compound for 4 hours, cells are lysed using Quantigene 2.0 sample processing kit (#QS0100). C-Myc mRNA is detected using a QuantiGene 2.0 assay kit (#QS0009) with gene-specific probe to human C-Myc (#SA-50182) following the manufacturer's recommendations. Luminescence signals are read on Flexstation II microplate reader (Molecular Devices, Sunnyvale, Calif., USA).

In general, IC50 refers to the concentration that inhibits the measured activity by half. With `COC1CC(c2nc3ccc(-c4cc(C)c(=O)n(C)c4)cc3n2CCOCC(F)(F)F)C1` (stereo not shown) [Compound 63, 5-[2-(3-methoxycyclobutyl)-1-(2-(2,2,2-trifluoroethoxy)ethyl)-1H-benzo[d]imidazol-6-yl]-1,3-dimethylpyridin-2(1H)-one], the IC50 came out at 17 nM.
